{
  "source": "patent US12702131B2",
  "about": "“Synergistic agrochemical combination” (UPL LIMITED, priority 2020, dated 2026)",
  "format_in_all_cases": "in vivo",
  "conditions_in_all_cases": "Glufosinate 3000 ml/ha, Triacontanol 500 ml/ha",
  "key": {"[1]": {"system": "AMASP (Amaranthus spinosus)", "assay": "Field trial, weed control in papaya orchard, AMASP", "description": "(§1) Field trials were carried out to test the synergy of the combination Glufosinate and Triacontanol. The field trials were carried out at Murari, A.P. The percentage efficacy was calculated after 15, 25 and 30 days of applications. The application was in the open space among the plants in a Papaya orchard and the results are recorded in the table below:—\n(§2) TRTPO—Trianthema portulacastrum, COMBE—Commelina benghalensis, AMASP—Amaranthus spinosus, PTNHY—Parthenium hysterophorus, 1CRGG—Corchorus, DIMRE—Dinebra retroflexa, CYNDH—Cynodon dactylon, CYPRO—Cyperus rotundus, EPHHL—Euphorbia heterophylla"}, "[2]": {"system": "DIMRE (Dinebra retroflexa)", "assay": "Field trial, weed control in papaya orchard, DIMRE", "description": "as §1, §2"}, "[3]": {"system": "1CRGG (Corchorus)", "assay": "Field trial, weed control in papaya orchard, 1CRGG", "description": "as §1, §2"}, "[4]": {"system": "PTNHY (Parthenium hysterophorus)", "assay": "Field trial, weed control in papaya orchard, PTNHY", "description": "as §1, §2"}, "[5]": {"system": "PANRP (Brachiaria reptans)", "assay": "Field trial, weed control in papaya orchard, PANRP", "description": "as §1"}, "[6]": {"system": "COMBE (Commelina benghalensis)", "assay": "Field trial, weed control in papaya orchard, COMBE", "description": "as §1, §2"}, "[7]": {"system": "EPHHL (Euphorbia heterophylla)", "assay": "Field trial, weed control in papaya orchard, EPHHL", "description": "as §1, §2"}, "[8]": {"system": "TRTPO (Trianthema portulacastrum)", "assay": "Field trial, weed control in papaya orchard, TRTPO", "description": "as §1, §2"}, "[9]": {"system": "CYNDH (Cynodon dactylon)", "assay": "Field trial, weed control in papaya orchard, CYNDH", "description": "as §1, §2"}, "[10]": {"system": "CYPRO (Cyperus rotundus)", "assay": "Field trial, weed control in papaya orchard, CYPRO", "description": "as §1, §2"}},
  "data": [
    {"smiles": "CP(=O)(O)CCC(N)C(=O)O", "note": "(centres unmarked) [Glufosinate]", "values": [
      {"measurement": "% Weed control at 30 DAA AMASP", "setting": "[1]", "result": 73, "unit": "%"},
      {"measurement": "% Weed control at 30 DAA DIMRE", "setting": "[2]", "result": 62, "unit": "%"},
      {"measurement": "% Weed control at 30 DAA 1CRGG", "setting": "[3]", "result": 69, "unit": "%"},
      {"measurement": "% Weed control at 30 DAA PTNHY", "setting": "[4]", "result": 96, "unit": "%"},
      {"measurement": "% Weed control at 15 DAA", "setting": "[5]; 15 DAA", "result": 85, "unit": "%"},
      {"measurement": "% Weed control at 25 DAA", "setting": "[5]; 25 DAA", "result": 65, "unit": "%"},
      {"measurement": "% Weed control at 30 DAA COMBE", "setting": "[6]", "result": 47, "unit": "%"},
      {"measurement": "% Weed control at 30 DAA EPHHL", "setting": "[7]", "result": 80, "unit": "%"},
      {"measurement": "% Weed control at 30 DAA TRTPO", "setting": "[8]", "result": 81, "unit": "%"},
      {"measurement": "% Weed control at 30 DAA CYNDH", "setting": "[9]", "result": 54, "unit": "%"},
      {"measurement": "% Weed control at 30 DAA CYPRO", "setting": "[10]", "result": 11, "unit": "%"}
    ]}
  ]
}
